What was measured:
[1] = system: dogs with flea allergic dermatitis; assay: Pruritus intensity by Actical activity monitors in flea allergic dogs; format: in vivo, Beagle dogs; details: Prednisolone 10 mg/day orally; for Actical day, mean (standard deviation): 6am-6pm; for Actical night, mean (standard deviation): 6pm-6am
Protocol: (§1) Flea-allergic laboratory Beagle dogs are infested with fleas. Fifty (50) Ctenocephalides felis fleas, 18 to 20 days old are released on the back of every dog on D1. Dogs are combed 48 hours (D3) after infestation to reduce the number of fleas (reduction of allergen charge).
Pruritus intensity: Pruritus intensity is evaluated using activity monitors (Actical™: Actiwatch™; Cambridge Neuorotechnology Ltd, Papworth Everard, UK) according to Nuttall and McEwan. (Nuttal T and McEwan N, “Objective measurement of pruritus in dogs: a preliminary study using activity monitors”. ESVD, 2006, 17 348-351). The physical activity monitors, mounted on collars, are placed around the dog's neck and tightened to the extent that they more with the skin but not so that they compress the underlying tissues. They were put on the dogs on D −5. […] This typically allows to see the difference in activity when the dogs have fleas and are developing pruritic and inflammatory lesions (i.e. dermatitis) and then again their activity during treatment with either the Test Compound or Prednisolone. The activity monitors are typically removed at the end of each phase on D12. Activity monitors measure the movement average within 15 seconds,
(§2) Skin lesions are allowed to develop until the total lesion score reaches ˜20. The Test Compound is then given orally at 50, 150 and 300 mg/day, divided into 2 doses, for 5 days. Prednisolone (10 mg/day, orally) is used as a comparator.
(§3) Lesion scores and Actical™ measurement values are typically observed on the following days: • Pre-value: before challenge with fleas • the day of challenge with fleas (Actical™ measurements only); • D1: the day when the total lesion score reached a sufficiently high value (average lesion score 20) and treatment of the animal started. • D2 to D6,
(§4) In the treatment group, lesion scores were taken from 8 dogs. Actical™ measurements were also taken from 6 of these dogs.

[2] = system: dogs with flea allergic dermatitis; assay: Skin lesion scores (total lesion score) in dogs with flea-allergic dermatitis; format: in vivo, Beagle dogs; details: Prednisolone 10 mg/day orally
Protocol: as §1
Skin observations: before flea infestations (D −1) all dogs are typically examined to establish a baseline score for erythema, papules, crusts, scales, alopecia, and excoriation. From D1, daily clinical observations are performed. Each lesion is typically graded using a scale from 0 to 3:
0=no signs 1=mild 2=moderate 3=severe
as §2
Erythema: is typically an acute clinical sign of cutaneous inflammation defined as redness of the skin caused by capillary congestion which can be aggravated by scratching. Excoriation: is typically a punctuate or linear abrasion produced by mechanical means, usually involving only the epidermis but not uncommonly reaching the papillary dermis. […] Papule: is typically a circumscribed, solid elevation with no visible fluid, varying in size from a pinhead to 1 cm. […], formed when there is a high break in the follicle wall. In the presence of bacteria, papules become pustules. Crusts: are typically dried serum, pus, or blood usually mixed with epithelial and sometimes bacterial debris. Scales: are dry or greasy laminated masses of keratin.
as §3, §4
• Erythema*, • Excoriations*, • Papules/pustules • Self induced alopecia^o, and • Scales, • Erythema and excoriations are related to pruritus • Self induced alopecia is also related to pruritus but the improvement is […] after several weeks of treatment.
Day 1 of treatment when dogs reached a sufficient lesion score to initiate treatment (average 20). Pre-values (baseline).

C[C@]12C=CC(=O)C=C1CC[C@@H]1[C@@H]2[C@@H](O)C[C@@]2(C)[C@H]1CC[C@]2(O)C(=O)CO [Prednisolone, reference compound]
Actical day, mean (standard deviation) ([1]; day 1 (treatment start)): 74 (20) Average activity counts every 15 secs
Actical day, mean (standard deviation) ([1]; day 2): 66 (50) Average activity counts every 15 secs
Actical day, mean (standard deviation) ([1]; day 3): 49 (33) Average activity counts every 15 secs
Actical day, mean (standard deviation) ([1]; day 4): 54 (22) Average activity counts every 15 secs
Actical day, mean (standard deviation) ([1]; day 5): 47 (24) Average activity counts every 15 secs
Actical day, mean (standard deviation) ([1]; day 6): 41 (14) Average activity counts every 15 secs
Actical day, mean (standard deviation) ([1]; fleas (day of challenge)): 74 (22) Average activity counts every 15 secs
Actical day, mean (standard deviation) ([1]; pre (before exposure to fleas)): 40 (10) Average activity counts every 15 secs
Actical night, mean (standard deviation) ([1]; Fleas (day of challenge)): 8.6 (3.5) Average activity counts every 15 secs
Actical night, mean (standard deviation) ([1]; Pre (before exposure to fleas)): 7.9 (4.4) Average activity counts every 15 secs
Actical night, mean (standard deviation) ([1]; day 1 (treatment start)): 16.2 (2.9) Average activity counts every 15 secs
Actical night, mean (standard deviation) ([1]; day 2): 6.8 (4.1) Average activity counts every 15 secs
Actical night, mean (standard deviation) ([1]; day 3): 5.1 (2.8) Average activity counts every 15 secs
Actical night, mean (standard deviation) ([1]; day 4): 7.3 (3.3) Average activity counts every 15 secs
Actical night, mean (standard deviation) ([1]; day 5): 4.8 (2.2) Average activity counts every 15 secs
Actical night, mean (standard deviation) ([1]; day 6): 5.3 (1.7) Average activity counts every 15 secs
Total score ctb (total lesion score compared to baseline), mean (standard deviation) ([2]; day 2): −5.6 (6.3)
Total score ctb (total lesion score compared to baseline), mean (standard deviation) ([2]; day 3): −7.9 (6.7)
Total score ctb (total lesion score compared to baseline), mean (standard deviation) ([2]; day 4): −9.2 (6.3)
Total score ctb (total lesion score compared to baseline), mean (standard deviation) ([2]; day 5): −9.9 (4.8)
Total score ctb (total lesion score compared to baseline), mean (standard deviation) ([2]; day 6): −11.8 (6.1)

Reference: patent US20120077803A1, “Uses Of NK Receptor Antagonists” (NOVARTIS AG, priority 2009, published 2012)
